# Measured values reported in patent US10640748B2, “Oligodendroglial cell culturing methods and in methods for treating neurodegenerative disorders by using thyroid hormones or analogues” (NeuOrphan Pty Ltd, priority 2014, dated 2020).
# Entries after “also recorded” stand apart in the source; their conditions may differ.
# Assays:
# [1] = test system: H9-derived hOPCs (Merck/Millipore); test: Microarray analysis of H9-derived hOPC mixed neural cultures treated with DITPA; type: cell-based, human; settings: 48 hours
# Description: H9-derived hOPCs (Merck/Millipore) were differentiated for 4 weeks and the following treatments were administered to the cells for 48 hours: Medium with 0.01% absolute ethanol control; 1 ng/mL DITPA (DITPA 1 ng/mL); 10 ng/mL DITPA (DITPA 10 ng/mL); or 100 ng/mL DITPA (DITPA 100 ng/mL). 1 μg of collected mRNA from each population was hybridized to Human HT-12 v3.0 Gene Expression BeadChip (Illumina) according to the manufacturer's instruction (For detailed procedure see Supplemental Experimental Procedures).
# H9-derived commercially available human neural precursors were cultured and differentiated according to the manufacturer's protocol (Human OPC differentiation kit, Millipore). Briefly, undifferentiated cells were maintained on 4% growth factor-reduced Matrigel (BD Biosciences) for a week in manufacturer provided expansion medium then differentiated on poly-L-ornithine (10 μg/mL, Sigma-Aldrich) and mouse laminin (10 μg/mL, Life Technologies) coated plates for 4 weeks in manufacturer provided medium.
# Raw signal intensity values were subjected to variance stabilization transformation including background correction, log2 transformation and variance stabilization using the lumiR package of R Bioconductor (Du et al., 2008). Since there were fewer arrays of common genes detected in DITPA 100 ng/mL compared to DITPA 1 ng/mL and 10 ng/mL versus ethanol control, all analyses were performed without DITPA 100 ng/mL. Hierarchical clustering with centroid linkage clustering was performed. ANOVA analyses of normalized probe intensity values were performed in Partek Genomic Suite (Partek). ANOVA was used to calculate the significance of variation in normalized expression values between sample-groups, and fold change of gene expression was calculated as mean ratio. Absolute fold changes of 1.5 or more were defined as differentially expressed. Gene ontology enrichment analysis was performed on the list of differentially expressed probes in Partek.
# [2] = test system: Pre-OLs from Nkx2.1-GFP+ sorted cultures at stage VI, day 21; test: MTT-based cytotoxicity assay under Bosutinib MCT8 blockade; type: cell-based, human; settings: Bosutinib with 10 ng/mL DITPA, 48 hours
# Description: Pre-OLs from Nkx2.1-GFP+ sorted cultures at stage VI, day 21 were treated with the pharmacological inhibitor of MCT8, bosutinib (LC Laboratories, B-1788, reconstituted in dimethyl sulfoxide, [DMSO]) at different concentrations (1 ng/mL, 10 ng/mL and 100 ng/mL) with co-administration of 10 ng/mL DITPA. An MTT assay and flow cytometry were then performed on the cells stained for DAPI after 48 hours of treatment, to analyze DAPI+ dead cells.
# [3] = test system: Nkx2.1-GFP sorted cells transduced with slc16a2 shRNA lentivirus; test: Apoptosis assay (cleaved caspase-3) after stable knockdown of slc16a2; type: cell-based; settings: DITPA from 3 days post-LV-transduction
# Description: Nkx2.1-GFP sorted cells at the end of stage VI or V were transduced with MOI of 10 in appropriate stage-specific medium containing polybrene (5 μg/mL, Sigma-Aldrich). Efficiency of transduction was validated by analyzing mCherry+ cells by flow cytometry and efficiency of knockdown was validated by analyzing the slc16a2 transcript level by qRT-PCR 72 hours post-transduction. An apoptosis assay was performed on cells either, treated with or without DITPA for 2 days from 72 hours post-transduction, then fixed. Cells were stained with monoclonal rat anti-mCherry (M11217, Life Technologies, 1:1,000), polyclonal rabbit anti-cleaved caspase-3 (9661, Cell Signaling Technology, 1:400) and DAPI (Life Technologies) then analyzed by confocal microscopy (Nikon A1 Inverted using a ×20 water objective lens). Apopotic OLs were defined as those mCherry-positive cells with cleaved caspase-3+ nuclei that were also condensed and fragmented as assessed by DAPI. The data were plotted as the number of cleaved caspase-3/mCherry+ cells divided by total number of mCherry+ cells.
# [4] = 1 and 10 ng/mL, vs ethanol control
compound,measurement,setting,value
"O=C(O)CCc1cc(I)c(Oc2ccc(O)cc2)c(I)c1 [DITPA, 3,5-Diiodothyropropionic acid]",ASCL1 expression (oligodendroglial enriched transcription factor),[1]; [4],up-regulation
same,CRYM (μ-crystallin) expression,[1]; [4],down-regulation
same,DIO3OS expression,[1]; [4],up-regulation
same,DIO3 expression,[1]; [4],up-regulation
same,MYT1 expression (oligodendroglial enriched transcription factor),[1]; [4],up-regulation
same,RARA expression,[1]; [4],up-regulation
same,RARRES3 expression,[1]; [4],down-regulation
same,astrocyte and neuron enriched transcription factors regulated,[1]; [4],minimal
same,thrb expression,[1]; [4],up-regulation
same,commonly regulated genes,[1]; DITPA at 1 ng/mL and 10 ng/mL vs ethanol control,3385
same,up-regulation of metallothionein (MT1A),[1]; upon DITPA treatment,~8 fold
same,up-regulation of p53,[1]; upon DITPA treatment,~2 fold
same,up-regulation of reprimo (RPRM),[1]; upon DITPA treatment,~13 fold
same,survival rates (MTT assay),[2],increased survival rates
same,cell death / apoptosis mediated by slc16a2 knock-down,[3],significantly reduced cell death; also recorded: Depicts an experiment which shows that DITPA rescues oligodendrocyte death
